Measured values taken from PubChem BioAssay AID1552 (Sanford-Burnham Center for Chemical Genomics, 2009).
The source made the active and inactive calls. No rule for the calls is given here.

These compounds were tested against Ubiquitin-conjugating enzyme E2 N (Homo sapiens) (UniProt P61088) (assay: NMR detection of UBE2N ligand binding – biophysical, purified protein (AID 1552)). Settings: NMR binding to purified UBE2N.
Chain of Ubiquitin-conjugating enzyme E2 N (Homo sapiens) (P61088 whole entry, looked up): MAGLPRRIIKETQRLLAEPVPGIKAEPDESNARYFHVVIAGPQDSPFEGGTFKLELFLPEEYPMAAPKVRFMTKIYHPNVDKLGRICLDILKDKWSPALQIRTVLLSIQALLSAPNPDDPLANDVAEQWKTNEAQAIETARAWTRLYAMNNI

Structure (SMILES) | Kd
Fc1ccc(CN2CCCNCC2)cc1 | > 4 mM (inactive)
C[N+](C)(C)CC(=O)[O-] | > 4 mM (inactive)
NC(=O)NC1NC(=O)NC1=O (centres undefined) | > 4 mM (inactive)
CC(C)C(=O)NCC(c1ccco1)N1CCOCC1 (centres undefined) | > 4 mM (inactive)
CC(C)CCCC(C)C1CCC2C3=CC[C@H]4C[C@@H](O)CC[C@]4(C)C3CC[C@@]21C (some centres undefined) | > 4 mM (inactive)
c1ccc(C[N+]23CCN(CC2)c2ccccc23)cc1 | > 4 mM (inactive)
Cc1cc(SCC(=O)c2ccccc2)nc(=O)[nH]1 | > 4 mM (inactive)
Nc1cccc(S(=O)(=O)N2CCOCC2)c1 | > 4 mM (inactive)
NC(=O)c1ccc(C(N)=O)c(-c2ccccc2)c1 | > 4 mM (inactive)
CCOC(=O)c1c(C)cc(O)c(C=O)c1O | > 4 mM (inactive)
NC1=NC(=O)/C(=C/c2cccs2)S1 | > 4 mM (inactive)
CCN(CC)C(=O)c1n[nH]c(=O)c2ccccc12 | > 4 mM (inactive)
NCC1COc2ccccc2O1 (centres undefined) | > 4 mM (inactive)
Cc1nn(CC(=O)Nc2ccccn2)c(=O)c2ccccc12 | > 4 mM (inactive)
O=c1c2c(nc3nc(Cc4ccccc4)[nH]n13)CCC2 | > 4 mM (inactive)
CCOC(=O)c1c(C)nc2cc(C)ccn12 | > 4 mM (inactive)
NC(=O)c1ccsc1N | > 4 mM (inactive)
Cc1nnsc1C(=O)Nc1ccccc1[N+](=O)[O-] | > 4 mM (inactive)
CNC(=O)c1ccccc1-c1ccccc1 | > 4 mM (inactive)
CSc1nc2nccc(N)n2n1 | > 4 mM (inactive)
C/C=C(\C)C(=O)OC1[C@@H]2C=C3C(CC[C@]4(C)C3CC(=O)O[C@H]4c3ccoc3)C(C)(C2=O)[C@@H](C(O)C(=O)OC)C1(C)C (some centres undefined) | > 4 mM (inactive)
OC1(c2ccc(Cl)cc2)CCNCC1 | > 4 mM (inactive)
O=[N+]([O-])c1cccc(-c2c[n+](=O)c3c(n2[O-])CCC3)c1 | > 4 mM (inactive)
Cc1cc(C(=O)Nc2cccnc2)cs1 | > 4 mM (inactive)

Structure (SMILES) | Kd
CN(C)c1ccc(/C=C2/NC(=S)NC2=O)cc1 | > 4 mM (inactive)
COc1ccc2c(c1OC)C(=O)O[C@@H]2[C@@H]1c2cc3c(cc2CCN1C)OCO3 | > 4 mM (inactive)
O=C(Nc1nccs1)c1ccc(=O)[nH]n1 | > 4 mM (inactive)
CC(CCC(=O)O)[C@H]1CCC2C3CC[C@@H]4CCCC[C@]4(C)C3CC[C@@]21C (some centres undefined) | > 4 mM (inactive)
O=C(c1ccc2c(c1)OCO2)N1CCC2(CC1)OCCO2 | > 4 mM (inactive)
O=C(c1ccncc1)N1CCN(C(=O)c2ccncc2)CC1 | > 4 mM (inactive)
Oc1ccc(-c2n[nH]c(=S)n2Cc2ccco2)cc1 | > 4 mM (inactive)
O=[n+]1cc(-c2ccccc2)n([O-])c2c1CCC2 | > 4 mM (inactive)
Cn1c([O-])c([N+](C)(C)C)c(=O)n(C)c1=O | > 4 mM (inactive)
COc1cc(C(=S)N2CCOCC2)ccc1O | > 4 mM (inactive)
NCc1c[nH]c2ccccc12 | > 4 mM (inactive)
CC(=O)O[C@H]1CC[C@@]2(C)C(CC[C@]3(C)C2CC=C2C4CC(C)(C)CC[C@]4(C)CC[C@]23C)C1(C)C (some centres undefined) | > 4 mM (inactive)
CCC(=O)Nc1cc(C(C)C)c(O)cc1C | > 4 mM (inactive)
OCc1ccc(-c2cccs2)s1 | > 4 mM (inactive)
O=c1[nH]c(O)c(C=NC2CC2)c(=O)[nH]1 | > 4 mM (inactive)
C[C@]12CCC3C(CC[C@H]4C[C@@H](O)CC[C@]34C)C1CCC2=O (some centres undefined) | > 4 mM (inactive)
NS(=O)(=O)c1ccc(NC(=O)C(F)(F)F)cc1 | > 4 mM (inactive)
CC(C)NS(=O)(=O)c1ccc(N)cc1 | > 4 mM (inactive)
COC1=CC(=O)C[C@@H](C)[C@]12Oc1c(Cl)c(OC)cc(OC)c1C2=O | > 4 mM (inactive)
COc1ccc(-c2nnsc2N)cc1 | > 4 mM (inactive)
O=c1cc(-c2ccccc2)oc2cc(O)cc(O)c12 | > 4 mM (inactive)
O=S(=O)(c1ccc(F)c(Cl)c1)N1CCCC1 | > 4 mM (inactive)
CC(C)=CCc1c(O)cc(C)oc1=O | > 4 mM (inactive)
CCOC(=O)c1cc(C)n(C)n1 | > 4 mM (inactive)

Structure (SMILES) | Kd
Cc1nc2ccccc2c2c1C(=O)N(N)C2=O | > 4 mM (inactive)
COc1ccc(C)cc1S(=O)(=O)N1CCCCC1 | > 4 mM (inactive)
Cc1nnc(NC(=O)C(C)Sc2nncn2C)s1 (centres undefined) | > 4 mM (inactive)
COc1ccccc1NC(=O)c1snnc1C | > 4 mM (inactive)
O=C(Nc1nc2c(s1)CCCC2)c1cccnc1 | > 4 mM (inactive)
Cc1ncc(CC(=O)O)s1 | > 4 mM (inactive)
CC(=O)Nc1ccc(NC2SC(=O)NC2=O)cc1 (centres undefined) | > 4 mM (inactive)
Cc1nccn1CCC(=O)O | > 4 mM (inactive)
OCCNc1nc2ccc(Cl)cc2[nH]1 | > 4 mM (inactive)
Cc1cc(C)n(CCCC(=O)O)n1 | > 4 mM (inactive)
CCn1ncc(Cl)c1C(=O)Nc1ccncc1 | > 4 mM (inactive)
OCc1ccc2occc2c1 | > 4 mM (inactive)
CP(C)(=O)CCC(=O)O | > 4 mM (inactive)
Clc1ccc(-c2nnc3ccccn23)cc1 | > 4 mM (inactive)
Cc1cc(C)nc(/N=C(/N)N2CCC(C(N)=O)CC2)n1 | > 4 mM (inactive)
CNC(=O)Nc1cccc(C(F)(F)F)c1 | > 4 mM (inactive)
Cn1ccnc1SCc1cc(=O)[nH]c2ccccc12 | > 4 mM (inactive)
CN1CCCC1C(=O)O (centres undefined) | > 4 mM (inactive)
COc1cc(-c2coc3cc(OC)c(OC)c(OC)c3c2=O)cc(OC)c1OC | > 4 mM (inactive)
COC(=O)Cc1csc(N)n1 | > 4 mM (inactive)
O=C(Nn1c(=S)[nH]c2ccccc2c1=O)c1ccncc1 | > 4 mM (inactive)
CC(=O)NC(=S)Nc1nc2ccccc2n1C(C)=O | > 4 mM (inactive)
CSc1ccc(/C=N/n2c(C)nnc2C)cc1 | > 4 mM (inactive)
COc1cc(C2NC(=S)NC(C)=C2C(C)=O)ccc1O (centres undefined) | > 4 mM (inactive)

Structure (SMILES) | Kd
COc1ccc2c(c1)OC/C(=C/c1ccc(O)c(O)c1)C2=O | > 4 mM (inactive)
NC(=O)Cn1cnc(-c2ccc(F)cc2)c1 | > 4 mM (inactive)
NC(CSCSCC(N)C(=O)O)C(=O)O (centres undefined) | > 4 mM (inactive)
Cn1c(=O)c2[nH]cnc2n(-c2ccccc2)c1=O | > 4 mM (inactive)
COc1ccccc1-c1noc(-c2ccco2)n1 | > 4 mM (inactive)
Cc1cc(NC(=O)c2ccc3c(c2)OCO3)no1 | > 4 mM (inactive)
O=C(/C(=N\O)n1cncn1)c1ccccc1Cl | > 4 mM (inactive)
O=C(Nc1cccnc1)c1ccc(Br)s1 | > 4 mM (inactive)
O=C1N/C(=N\c2ccccn2)SC1Cc1ccccc1 (centres undefined) | > 4 mM (inactive)
CN1C(=O)N(C)C2NC(=O)NC21 (centres undefined) | > 4 mM (inactive)
CC(C)=CC(=O)Nc1ccccc1C(N)=O | > 4 mM (inactive)
CN1C(=O)C(Cc2c[nH]c3ccccc23)C(=O)N(C)C1=O | > 4 mM (inactive)
NN1C(=O)CSC1=Nc1ccccc1 | > 4 mM (inactive)
Cc1c(C(=O)O)cnn1-c1ccccc1 | > 4 mM (inactive)
O=C1C2C3C=CC(O3)C2C(=O)N1c1ccccc1 (centres undefined) | > 4 mM (inactive)
CSc1ccccc1NC(=O)c1ccc(C)o1 | > 4 mM (inactive)
CCN(CC)c1nc2n(c(=O)n1)CCO2 | > 4 mM (inactive)
CN1C(=O)C2C=CC1C1C(=O)N(c3ccccc3)C(=O)C21 (centres undefined) | > 4 mM (inactive)
COC(=O)c1cn(C(=O)OC)c2ccccc12 | > 4 mM (inactive)
C1CCN2C[C@@H]3C[C@H](CN4CCCC[C@@H]34)[C@H]2C1 | > 4 mM (inactive)
OC[C@@H]1CCCN2CCCC[C@H]12 | > 4 mM (inactive)
Cc1nnc(NCc2ccc3c(c2)OCO3)[nH]c1=O | > 4 mM (inactive)
Nc1cccc(OC(F)(F)F)c1 | > 4 mM (inactive)
Cc1nc2ccc(NC(=O)N3CCSCC3)cc2s1 | > 4 mM (inactive)

Structure (SMILES) | Kd
S=C(c1ccc(N2CCOCC2)cc1)N1CCOCC1 | > 4 mM (inactive)
C=CCN1CC[C@]23c4c5ccc(O)c4OC2C(=O)CC[C@@]3(O)[C@H]1C5 (some centres undefined) | > 4 mM (inactive)
C=CCCCCCCCCCCCc1ccco1 | > 4 mM (inactive)
c1ccc2[nH]c(NCCN3CCOCC3)nc2c1 | > 4 mM (inactive)
COC(=O)c1nc(-c2ccccc2)oc1N(C)C | > 4 mM (inactive)
Cc1nc(-c2ccc(NS(C)(=O)=O)cc2)cs1 | > 4 mM (inactive)
COc1cc(C(C)=O)ccc1OCC(O)Cn1ccnc1 (centres undefined) | > 4 mM (inactive)
COC(=O)C[C@H]1C(C)(C)C(=O)[C@@H]2CC3=C4CC(=O)O[C@@H](c5ccoc5)[C@]4(C)CCC3C1(C)C2=O (some centres undefined) | > 4 mM (inactive)
NC(=O)NC1C=CS(=O)(=O)C1 (centres undefined) | > 4 mM (inactive)
COc1cc(OC)c2ccc(=O)oc2c1 | > 4 mM (inactive)
CNC[C@@H](O)c1ccc(O)c(O)c1 | > 4 mM (inactive)
COC(=O)c1c(OC)cc2c(c1C)Oc1c(Cl)c(OC(C)=O)c(Cl)c(C)c1C(=O)O2 | > 4 mM (inactive)
Cc1cc(N2CCCC2=O)c(N)cc1N | > 4 mM (inactive)
COc1ccccc1NC(=O)/C=N/O | > 4 mM (inactive)
CCC(=O)NC(=S)Nc1ccc(C(N)=O)cc1 | > 4 mM (inactive)
CC(C)=CCc1c2c(c3occ(-c4ccc(O)cc4)c(=O)c3c1O)C=CC(C)(C)O2 | > 4 mM (inactive)
CCn1cnc2cc(NCc3ccncc3)ccc21 | > 4 mM (inactive)
CC(=O)Nc1ccc(C(=O)N2CCOCC2)cc1Cl | > 4 mM (inactive)
CC(C)=CCCC1(C)C=Cc2c(O)c3c(c(CC=C(C)C)c2O1)OC12C(=CC4CC1C(C)(C)OC2(C/C=C(/C)C(=O)O)C4O)C3=O (centres undefined) | > 4 mM (inactive)
Cc1ccc2c(c1)=C(c1sc(N)nc1O)C(=O)N=2 | > 4 mM (inactive)
O=C(Nc1ccc2ccccc2c1)c1cnccn1 | > 4 mM (inactive)
S=c1nc(C2CC2)[nH]c2ccccc12 | > 4 mM (inactive)
O=C(Nc1nnc(-c2cccnc2)o1)c1ccccc1F | > 4 mM (inactive)
